Values quoted from earlier work as cited in patent publication US20070190117A1 (priority 2003, published 2007).

Conditions: galanthamine as hydrobromide or another pharmacologically acceptable salt

## COc1ccc2c3c1O[C@H]1C[C@@H](O)C=C[C@@]31CCN(C)C2 [galanthamine, 4a,5,9,11,12-hexahydro-3-methoxy-11-methyl[6H]-benzofuro-[3a,3,2ef][2]benzazepine-6-ol]
  half life in plasma: approx. 5 h
